Results published in patent US20250051344A1, “BIFUNCTIONAL SELECTIVE DEGRADERS OF SMARCA2 AND THERAPEUTIC USES THEREOF” (Nurix Therapeutics, Inc., priority 2023, published 2025).

What was measured:
[1] = target: T1, SMARCA2 (Homo sapiens, UniProt P51531); assay: SMARCA2 Cellular Degradation Assay (Western blot analysis on Jess platform); type: cell-based; settings: for Dmax / DC50: cellular degradation; for Fold Selectivity SMARCA4/2: ratio DC50 SMARCA4 / DC50 SMARCA2
T1 construct: endogenous in cells
Method in brief: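 Lysates of cells extracted from tumors were prepared in supplemented RIPA buffer, and 5 μg total protein per capillary was analysed by capillary Western (Jess) with anti-SMARCA2 and anti-β-actin antibodies. SMARCA2 electropherogram area was background-subtracted, normalized to actin, and expressed as percent remaining versus vehicle control.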

[2] = target: T2, SMARCA4 (Homo sapiens, UniProt P51532); assay: Cellular degradation assay, SMARCA4 (Table 1); type: cell-based
T2 construct: endogenous in cells
T2 sequence (P51532 whole entry, species assumed): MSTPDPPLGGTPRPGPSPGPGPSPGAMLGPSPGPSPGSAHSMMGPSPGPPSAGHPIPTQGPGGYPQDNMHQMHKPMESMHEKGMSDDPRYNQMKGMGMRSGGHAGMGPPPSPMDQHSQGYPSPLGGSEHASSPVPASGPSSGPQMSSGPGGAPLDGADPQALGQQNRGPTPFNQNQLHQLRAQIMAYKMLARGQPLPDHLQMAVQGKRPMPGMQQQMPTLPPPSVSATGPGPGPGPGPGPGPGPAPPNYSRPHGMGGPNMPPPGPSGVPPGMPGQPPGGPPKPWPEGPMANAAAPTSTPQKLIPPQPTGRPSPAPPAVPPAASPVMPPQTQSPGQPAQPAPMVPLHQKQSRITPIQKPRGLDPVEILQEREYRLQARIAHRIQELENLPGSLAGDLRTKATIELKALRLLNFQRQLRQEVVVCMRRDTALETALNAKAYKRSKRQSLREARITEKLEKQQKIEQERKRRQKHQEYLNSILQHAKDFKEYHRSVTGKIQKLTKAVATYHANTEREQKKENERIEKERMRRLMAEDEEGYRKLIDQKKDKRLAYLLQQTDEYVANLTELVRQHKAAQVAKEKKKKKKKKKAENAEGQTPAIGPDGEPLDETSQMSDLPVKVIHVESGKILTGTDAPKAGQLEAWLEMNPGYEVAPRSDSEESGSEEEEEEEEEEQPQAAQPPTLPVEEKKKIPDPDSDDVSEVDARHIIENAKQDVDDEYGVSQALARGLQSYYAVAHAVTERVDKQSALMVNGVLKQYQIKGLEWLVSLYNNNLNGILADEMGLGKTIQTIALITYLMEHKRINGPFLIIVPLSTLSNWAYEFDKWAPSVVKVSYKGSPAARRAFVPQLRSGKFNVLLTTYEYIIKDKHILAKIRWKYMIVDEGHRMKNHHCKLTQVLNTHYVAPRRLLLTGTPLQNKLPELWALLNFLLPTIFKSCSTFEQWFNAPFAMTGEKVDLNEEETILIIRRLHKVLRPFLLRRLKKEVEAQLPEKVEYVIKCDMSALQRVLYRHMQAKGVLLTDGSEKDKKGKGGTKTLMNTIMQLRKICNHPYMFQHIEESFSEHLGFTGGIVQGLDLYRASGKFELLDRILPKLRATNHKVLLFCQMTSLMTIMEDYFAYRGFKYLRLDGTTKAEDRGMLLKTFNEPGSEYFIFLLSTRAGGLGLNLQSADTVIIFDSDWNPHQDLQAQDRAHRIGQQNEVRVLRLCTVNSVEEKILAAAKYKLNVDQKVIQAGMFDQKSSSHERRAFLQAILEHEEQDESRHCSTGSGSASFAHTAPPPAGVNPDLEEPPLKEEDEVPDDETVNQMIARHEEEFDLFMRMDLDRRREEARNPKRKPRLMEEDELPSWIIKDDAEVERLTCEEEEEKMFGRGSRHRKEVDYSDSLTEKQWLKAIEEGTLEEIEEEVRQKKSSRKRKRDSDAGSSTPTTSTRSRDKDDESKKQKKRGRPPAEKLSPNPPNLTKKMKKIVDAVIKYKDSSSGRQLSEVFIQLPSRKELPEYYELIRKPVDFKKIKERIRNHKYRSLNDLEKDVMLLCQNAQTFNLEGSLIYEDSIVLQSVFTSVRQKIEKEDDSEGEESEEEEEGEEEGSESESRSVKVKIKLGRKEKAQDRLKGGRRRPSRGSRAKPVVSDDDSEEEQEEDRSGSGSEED

T1 sequence (P51531 whole entry, species assumed): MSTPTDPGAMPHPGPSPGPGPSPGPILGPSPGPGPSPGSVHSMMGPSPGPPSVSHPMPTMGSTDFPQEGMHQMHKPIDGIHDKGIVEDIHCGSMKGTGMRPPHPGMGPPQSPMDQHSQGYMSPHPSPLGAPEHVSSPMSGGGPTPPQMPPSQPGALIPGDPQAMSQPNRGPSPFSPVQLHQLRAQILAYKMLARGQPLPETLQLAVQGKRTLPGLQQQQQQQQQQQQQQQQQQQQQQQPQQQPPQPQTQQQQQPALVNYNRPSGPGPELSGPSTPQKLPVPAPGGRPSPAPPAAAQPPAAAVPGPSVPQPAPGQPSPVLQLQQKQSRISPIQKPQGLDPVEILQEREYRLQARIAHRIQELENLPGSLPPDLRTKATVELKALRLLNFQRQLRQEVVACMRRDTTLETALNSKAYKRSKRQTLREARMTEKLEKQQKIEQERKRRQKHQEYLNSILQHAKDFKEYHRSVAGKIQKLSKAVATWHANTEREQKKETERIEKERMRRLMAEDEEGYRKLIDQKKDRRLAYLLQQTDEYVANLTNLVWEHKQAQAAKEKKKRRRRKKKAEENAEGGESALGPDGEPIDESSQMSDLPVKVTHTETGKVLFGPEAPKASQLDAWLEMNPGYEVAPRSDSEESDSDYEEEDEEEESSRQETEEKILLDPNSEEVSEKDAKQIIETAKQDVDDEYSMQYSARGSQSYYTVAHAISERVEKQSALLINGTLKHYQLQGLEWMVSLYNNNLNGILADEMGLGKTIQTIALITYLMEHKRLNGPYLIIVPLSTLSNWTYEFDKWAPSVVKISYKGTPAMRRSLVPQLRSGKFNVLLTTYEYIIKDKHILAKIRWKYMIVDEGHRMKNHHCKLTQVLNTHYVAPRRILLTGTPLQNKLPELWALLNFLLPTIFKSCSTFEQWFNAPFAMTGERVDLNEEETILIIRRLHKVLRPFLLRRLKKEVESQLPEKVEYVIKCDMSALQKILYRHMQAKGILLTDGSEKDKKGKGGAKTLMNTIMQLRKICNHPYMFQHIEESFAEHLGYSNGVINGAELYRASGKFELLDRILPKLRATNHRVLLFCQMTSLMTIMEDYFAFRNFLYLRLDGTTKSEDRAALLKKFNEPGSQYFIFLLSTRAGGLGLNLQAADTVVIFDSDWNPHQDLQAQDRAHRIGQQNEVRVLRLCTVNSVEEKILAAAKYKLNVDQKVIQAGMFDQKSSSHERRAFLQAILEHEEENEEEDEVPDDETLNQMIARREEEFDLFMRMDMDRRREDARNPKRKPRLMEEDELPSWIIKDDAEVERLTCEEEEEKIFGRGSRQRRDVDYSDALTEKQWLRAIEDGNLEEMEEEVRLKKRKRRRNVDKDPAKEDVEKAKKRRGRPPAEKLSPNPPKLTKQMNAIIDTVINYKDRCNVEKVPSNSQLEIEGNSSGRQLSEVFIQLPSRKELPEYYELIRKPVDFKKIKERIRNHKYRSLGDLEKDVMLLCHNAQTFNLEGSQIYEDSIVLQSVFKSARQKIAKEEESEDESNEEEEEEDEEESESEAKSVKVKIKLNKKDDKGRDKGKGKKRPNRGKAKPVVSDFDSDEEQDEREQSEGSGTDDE

Row | Structure (SMILES) | Dmax [1] [%] | Fold Selectivity SMARCA4/2 [1] | Dmax [2] [%] | DC50 [1] [nM] | DC50 [2] [nM]
1 | O=C1CCC(c2ccc(N3CCN(C(=O)CCCN4CCN(C(=O)C5(c6ccccc6)CCN(c6cnnc(-c7ccccc7O)c6)CC5)CC4)CC3)cc2)C(=O)N1 (racemic) [Example 22, rac-(3R)-3-(4-{4-[4-(4-{1-[6-(2-hydroxyphenyl)pyridazin-4-yl]-4-phenylpiperidine-4-carbonyl}piperazin-1-yl)butanoyl]piperazin-1-yl}phenyl)piperidine-2,6-dione] | 30.5 | 1 | 20.6 |  | 
2 | O=C1CC[C@@H](c2ccc(OCC3CCN(CC4CCN(C(=O)C5(c6ccccc6)CCN(c6cnnc(-c7ccccc7O)c6)CC5)CC4)CC3)cc2)C(=O)N1 [Example 35, (3S)-3-[4-({1-[(1-{1-[6-(2-hydroxyphenyl)pyridazin-4-yl]-4-phenylpiperidine-4-carbonyl}piperidin-4-yl)methyl]piperidin-4-yl}methoxy)phenyl]piperidine-2,6-dione] | 57 | 124.30 | 22.6 | 80.5 | 
3 | O=C1CCC(c2ccc(C3CCN(CC(=O)N4CC5(C4)CN(C(=O)C4(Oc6ccccc6Cl)CCN(c6cnnc(-c7ccccc7O)c6)CC4)C5)CC3)cc2)C(=O)N1 (racemic) [Example 113, rac-(r)-3-(4-(1-(2-(6-(4-(2-chlorophenoxy)-1-(6-(2-hydroxyphenyl)pyridazin-4-yl)piperidine-4-carbonyl)-2,6-diazaspiro[3.3]heptan-2-yl)-2-oxoethyl)piperidin-4-yl)phenyl)piperidine-2,6-dione] | 83.6 | 9 | 63.4 | 9.76 | 87.4
4 | O=C1CCC(Nc2ccc(C3CCN(CC(=O)N4CCC5(CC4)CN(C(=O)C4(c6ccccc6)CCN(c6cnnc(-c7ccccc7O)c6)CC4)C5)CC3)cc2)C(=O)N1 (racemic) [Example 108, rac-(r)-3-((4-(1-(2-(2-(1-(6-(2-hydroxyphenyl)pyridazin-4-yl)-4-phenylpiperidine-4-carbonyl)-2,7-diazaspiro[3.5]nonan-7-yl)-2-oxoethyl)piperidin-4-yl)phenyl)amino)piperidine-2,6-dione] | 66.5 | 8 | 52.5 | 23.4 | 179
5 | CN(C(=O)C1(c2ccnn2C)CCN(c2cnnc(-c3ccccc3O)c2)CC1)C1CCN(CC2CCN(c3ccc(C4CCC(=O)NC4=O)cc3)CC2)CC1 (racemic) [Example 91, rac-N-{1-[(1-{4-[(3R)-2,6-dioxopiperidin-3-yl]phenyl}piperidin-4-yl)methyl]piperidin-4-yl}-1-[6-(2-hydroxyphenyl)pyridazin-4-yl]-N-methyl-4-(1-methyl-1H-pyrazol-5-yl)piperidine-4-carboxamide] | 79.8 | 2212 | 41.8 | 4.52 | 
6 | CN(C(=O)C1(OC2CC2)CCN(c2cnnc(-c3ccccc3O)c2)CC1)C1CCN(CCC2CCN(c3ccc(C4CCC(=O)NC4=O)cc3)CC2)CC1 (racemic) [Example 124, rac-4-cyclopropoxy-N-{1-[2-(1-{4-[(3r)-2,6-dioxopiperidin-3-yl]phenyl}piperidin-4-yl)ethyl]piperidin-4-yl}-1-[6-(2-hydroxyphenyl)pyridazin-4-yl]-N-methylpiperidine-4-carboxamide] | 75.9 | 882 | 25.1 | 11.3 | 
7 | O=C1CC[C@H](c2ccc(N3CCC(CN4CCN(C(=O)C5(c6ccccc6)CCN(c6cnnc(-c7ccccc7O)c6)CC5)CCC4C(F)(F)F)CC3)cc2)C(=O)N1 (stereo partly drawn) [Example 53, (3R)-3-(4-(4-((4-(1-(6-(2-hydroxyphenyl)pyridazin-4-yl)-4-phenylpiperidine-4-carbonyl)-7-(trifluoromethyl)-1,4-diazepan-1-yl)methyl)piperidin-1-yl)phenyl)piperidine-2,6-dione] | 47.2 | 1 | 9.06 |  | 
8 | COC1(C(=O)N(C)C2CCN(C(=O)CN3CCC(c4ccc([C@@H]5CCC(=O)NC5=O)cc4)CC3)CC2)CCN(c2cnnc(-c3ccccc3O)c2)CC1 (racemic) [Example 111, rac-n-(1-(2-(4-(4-(2,6-dioxopiperidin-3-yl)phenyl)piperidin-1-yl)acetyl)piperidin-4-yl)-1-(6-(2-hydroxyphenyl)pyridazin-4-yl)-4-methoxy-n-methylpiperidine-4-carboxamide] | 81.4 | 19 | 57.5 | 11.1 | 210
9 | CC1(NC(=O)C2(c3ccccc3)CCN(c3cnnc(-c4ccccc4O)c3)CC2)CCN(CC2CCN(c3ccc(N[C@@H]4CCC(=O)NC4=O)cn3)CC2)CC1 (racemic) [Example 99, rac-(r)-n-(1-((1-(5-((2,6-dioxopiperidin-3-yl)amino)pyridin-2-yl)piperidin-4-yl)methyl)-4-methylpiperidin-4-yl)-1-(6-(2-hydroxyphenyl)pyridazin-4-yl)-4-phenylpiperidine-4-carboxamide] | 57.3 | 208 | 46.9 | 48.1 | 
10 | CN(C(=O)C1(c2cnn(C)c2)CCN(c2cnnc(-c3ccccc3O)c2)CC1)C1CCN(CCC2CCN(c3ccc(C4CCC(=O)NC4=O)cc3)CC2)CC1 (racemic) [Example 94, rac-N-{1-[2-(1-{4-[(3R)-2,6-dioxopiperidin-3-yl]phenyl}piperidin-4-yl)ethyl]piperidin-4-yl}-1-[6-(2-hydroxyphenyl)pyridazin-4-yl]-N-methyl-4-(1-methyl-1H-pyrazol-4-yl)piperidine-4-carboxamide] | 87.3 | 4454 | 33 | 2.24 | 
11 | O=C1CC[C@@H](c2ccc(N3CCC(CN4CC5(C4)CN(C(=O)C4(c6ccccc6)CCN(c6cnnc(-c7ccccc7O)c6)CC4)C5)CC3)cc2)C(=O)N1 [Example 8, (3S)-3-(4-{4-[(6-{1-[6-(2-hydroxyphenyl)pyridazin-4-yl]-4-phenylpiperidine-4-carbonyl}-2,6-diazaspiro[3.3]heptan-2-yl)methyl]piperidin-1-yl}phenyl)piperidine-2,6-dione] | 75.1 | 241.66 | 44.6 | 41.4 | 
12 | O=C1CC[C@H](c2ccc(N3CCC(CN4CC5CC(NC(=O)C6(c7ccccc7)CCN(c7cnnc(-c8ccccc8O)c7)CC6)C4C5)CC3)cc2)C(=O)N1 (stereo partly drawn) [Example 47, N-{2-[(1-{4-[(3R)-2,6-dioxopiperidin-3-yl]phenyl}piperidin-4-yl)methyl]-2-azabicyclo[2.2.1]heptan-6-yl}-1-[6-(2-hydroxyphenyl)pyridazin-4-yl]-4-phenylpiperidine-4-carboxamide] | 7.19 | 1 | 2.09 |  | 

Second part, the compound after the results:

Row | Dmax [1] [%] | Fold Selectivity SMARCA4/2 [1] | Dmax [2] [%] | DC50 [1] [nM] | DC50 [2] [nM] | Structure (SMILES)
13 | 88.8 | 20 | 58.5 | 7.13 | 143 | CCN(C(=O)C1(c2ccccc2)CCN(c2cnnc(-c3ccccc3O)c2)CC1)C1CCN(C(=O)CN2CCN(c3ccc(C4CCC(=O)NC4=O)cc3)CC2)CC1 (racemic) [Example 185, rac-N-{1-[2-(4-{4-[(3R)-2,6-dioxopiperidin-3-yl]phenyl}piperazin-1-yl)acetyl]piperidin-4-yl}-N-ethyl-1-[6-(2-hydroxyphenyl)pyridazin-4-yl]-4-phenylpiperidine-4-carboxamide]
14 | 74 | 714 | 28 | 14 |  | COC1(C(=O)N(C)C2CCN(CCC3CCN(c4ccc([C@H]5CCC(=O)NC5=O)cc4)CC3)CC2)CCN(c2cnnc(-c3ccccc3O)c2)CC1 [Example 196, (r)-n-(1-(2-(1-(4-(2,6-dioxopiperidin-3-yl)phenyl)piperidin-4-yl)ethyl)piperidin-4-yl)-1-(6-(2-hydroxyphenyl)pyridazin-4-yl)-4-methoxy-n-methylpiperidine-4-carboxamide]
15 | 88.8 | 28 | 46.4 | 4.58 | 128 | CN(C(=O)C1(c2ccccc2)CCN(c2cnnc(-c3ccccc3O)c2)CC1)C1CCN(CCC2CCN(c3ccc([C@H]4CCC(=O)NC4=O)cc3)CC2)CC1 [Example 192, N-{1-[2-(1-{4-[(3R)-2,6-dioxopiperidin-3-yl]phenyl}piperidin-4-yl)ethyl]piperidin-4-yl}-1-[6-(2-hydroxyphenyl)pyridazin-4-yl]-N-methyl-4-phenylpiperidine-4-carboxamide]
16 | 80.9 | 304 | 32.2 | 32.8 |  | Cn1c(=O)n(C2CCC(=O)NC2=O)c2cccc(N3CCN(CC(=O)N4CC5(C4)CN(C(=O)C4(c6ccccc6)CCN(c6cnnc(-c7ccccc7O)c6)CC4)C5)CC3)c21 (racemic) [Example 126, rac-(3R)-3-(4-{4-[2-(6-{1-[6-(2-hydroxyphenyl)pyridazin-4-yl]-4-phenylpiperidine-4-carbonyl}-2,6-diazaspiro[3.3]heptan-2-yl)-2-oxoethyl]piperazin-1-yl}-3-methyl-2-oxo-2,3-dihydro-1H-1,3-benzodiazol-1-yl)piperidine-2,6-dione]
17 | 71.3 | 340 | 38.9 | 29.4 |  | CC1(CCN2CC3(C2)CN(C(=O)C2(c4ccccc4)CCN(c4cnnc(-c5ccccc5O)c4)CC2)C3)CCN(c2ccc(C3CCC(=O)NC3=O)cc2)CC1 (racemic) [Example 131, rac-(3R)-3-(4-{4-[2-(6-{1-[6-(2-hydroxyphenyl)pyridazin-4-yl]-4-phenylpiperidine-4-carbonyl}-2,6-diazaspiro[3.3]heptan-2-yl)ethyl]-4-methylpiperidin-1-yl}phenyl)piperidine-2,6-dione]
